One test deals with T1, BRD4-BD1 (Homo sapiens, UniProt O60885).
T1 construct: made in house; host or cells: T7 phage grown in an E. coli host derived from the BL21 strain
Kind of test: Binding affinity to BRD4-BD1 (bromoKdELECT assay). The note with it: 11-point 3-fold dilution series. As for the experimental part:
Compounds were tested using a bromoKdELECT assay. T7 phage strains displaying bromodomains were grown in parallel in 24-well blocks in an E. coli host derived from the BL21 strain. E. coli were grown to log-phase and infected with T7 phage from a frozen stock (multiplicity of infection=0.4) and incubated with shaking at 32° C. until lysis (90-150 minutes). The lysates were centrifuged (5,000×g) and filtered ([…]) to remove cell debris. Streptavidin-coated magnetic beads were treated with biotinylated small molecule or acetylated peptide ligands for 30 minutes at room temperature to generate affinity resins for bromodomain assays. The liganded beads were blocked with excess biotin and washed with blocking buffer (SeaBlock (Pierce), 1% BSA, 0.05% Tween 20, 1 mM DTT) to remove unbound ligand and to reduce nonspecific phage binding. Binding reactions were assembled by combining bromodomains, liganded affinity beads, and test compounds in 1× binding buffer (17% SeaBlock, 0.33×PBS, 0.04% Tween 20, 0.02% BSA, 0.004% Sodium azide, 7.4 mM DTT). Test compounds were prepared as 1000× stocks in 100% DMSO. Kds were determined using an 11-point 3-fold compound dilution series with one DMSO control point. All compounds for Kd measurements are distributed by acoustic transfer (non-contact dispensing) in 100% DMSO. The compounds were then diluted directly into the assays such that the final concentration of DMSO was 0.09%. All reactions performed in polypropylene 384-well plates. Each was a final volume of 0.02 ml. The assay plates were incubated at room temperature with shaking for 1 hour and the affinity beads were washed with wash buffer (1×PBS, 0.05% Tween 20). The beads were then resuspended in elution buffer (1×PBS, 0.05% Tween […] non-biotinylated affinity ligand) and incubated at room temperature with shaking for 30 minutes. The bromodomain concentration in the eluates was measured by qPCR.

In the next test the test system is VCaP cells. In words: Cellular growth inhibition assay for VCaP cells, CellTiter-Glo. It is filed as cell-based, human. The settings on record: 72 hours. In a few lines: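 GI50 values come from four-parameter curve fits of luminescence data normalized to a zero baseline. Compound, in medium with 0.5% DMSO, was added one day after plating and left for 72 h before CellTiter-Glo 2.0 addition.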
For orientation: In ATP-based viability assays light output follows the ATP content of the culture.

A further test relates to T47D cells. Kind of test: Cellular Growth Inhibition Assay for T47D Cells (CellTiter-Glo). In kind it is cell-based, human. The note with it: 72 hours. Put shortly: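 GI50 values derive from four-parameter regression of CellTiter-Glo 2.0 luminescence, using zero luminescence as baseline. Human breast cancer T47D cells (3000/well; DMEM, 10% FBS, 0.2 units/mL insulin) were exposed for 72 h to compound dilutions at 0.5% DMSO, with dosing starting 24 h after seeding.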

By Kd is commonly meant the equilibrium constant for the complex coming apart. Read a low Kd as higher affinity. In general, GI50 refers to the concentration that inhibits growth by half. Lower therefore signals more potent growth inhibition. `CCS(=O)(=O)Nc1ccc(Oc2cccc(OCCN(C)c3ncc(C(=O)N[C@H]4C(C)(C)[C@H](Oc5ccc(C#N)c(Cl)c5)C4(C)C)cn3)c2)c(-c2cn(C)c(=O)c3[nH]ccc23)c1` [Compound I-1, N-((1r, 3r)-3-(3-chloro-4-cyanophenoxy)-2,2,4,4-tetramethylcyclobutyl)-2-((2-(3-(4-(ethylsulfonamido)-2-(6-methyl-7-oxo-6,7-dihydro-1H-pyrrolo[2,3-c]pyridin-4-yl)phenoxy)phenoxy)ethyl)(methyl)amino)pyrimidine-5-carboxamide]: the Kd at BRD4-BD1 was 50 to 500 nM. Moreover, in the test with VCaP cells (Homo sapiens), the GI50 was less than 500 nM.

As to `CCS(=O)(=O)Nc1ccc(Oc2cccc(OCCOCCOCCOCCOCCN(C)c3ncc(C(=O)N[C@H]4C(C)(C)[C@H](Oc5ccc(C#N)c(Cl)c5)C4(C)C)cn3)c2)c(-c2cn(C)c(=O)c3[nH]ccc23)c1` [Compound I-3], the Kd on BRD4-BD1 is less than 50 nM. In the test with VCaP cells (Homo sapiens), this compound returned a concentration for 50% growth inhibition (GI50) of less than 500 nM.

The compound `CCS(=O)(=O)Nc1ccc(Oc2cccc(OCCOCCOCCOCCOCCOC3CCN(c4ncc(C(=O)N[C@H]5C(C)(C)[C@H](Oc6ccc(C#N)c(Cl)c6)C5(C)C)cn4)CC3)c2)c(-c2cn(C)c(=O)c3[nH]ccc23)c1` [Compound I-8] had a Kd at BRD4-BD1 of 50 to 500 nM. The compound also showed a GI50 in the test on VCaP cells (Homo sapiens) of less than 500 nM.

At BRD4-BD1, `CCS(=O)(=O)Nc1ccc(Oc2cccc(OCCOC3CCN(c4ccc(C(=O)N[C@H]5C(C)(C)[C@H](Oc6ccc(C#N)c(Cl)c6)C5(C)C)nn4)CC3)c2)c(-c2cn(C)c(=O)c3[nH]ccc23)c1` [Compound I-11] returned a Kd of 50 to 500 nM. In the test with VCaP cells (Homo sapiens), this compound showed a 50% growth inhibitory concentration (GI50) of less than 500 nM.

Consider `CCS(=O)(=O)Nc1ccc(Oc2cccc(OCCOCCOC3CCN(c4ncc(C(=O)N[C@H]5C(C)(C)[C@H](Oc6ccc(C#N)c(Cl)c6)C5(C)C)cn4)CC3)c2)c(-c2cn(C)c(=O)c3[nH]ccc23)c1` [Compound I-13], for which the dissociation constant Kd on BRD4-BD1 lay within 500 to 2500 nM. Further, the GI50 with VCaP cells (Homo sapiens) was less than 500 nM.

As for `CCS(=O)(=O)Nc1ccc(Oc2cccc(N(C)C3CN(CC4CCN(c5ncc(C(=O)NC6C(C)(C)C(Oc7ccc(C#N)c(Cl)c7)C6(C)C)cn5)CC4)C3)c2)c(-c2cn(C)c(=O)c3[nH]ccc23)c1` (stereo not shown) [Compound I-39], on BRD4-BD1, the Kd was less than 50 nM. In addition, the GI50 with VCaP cells (Homo sapiens) was less than 500 nM.

At BRD4-BD1, `CCS(=O)(=O)Nc1ccc(Oc2cccc(OCCOC3CCN(c4ncc(C(=O)N[C@H]5C(C)(C)[C@H](Oc6ccc(C#N)c(Cl)c6)C5(C)C)cn4)CC3)n2)c(-c2cn(C)c(=O)c3[nH]ccc23)c1` [Compound I-47, N-((1r, 3r)-3-(3-chloro-4-cyanophenoxy)-2,2,4,4-tetra-methylcyclobutyl)-2-(4-(2-((6-(4-(ethylsulfonamido)-2-(6-methyl-7-oxo-6,7-dihydro-1H-pyrrolo[2,3-c]pyridin-4-yl)phenoxy)pyridin-2-yl)oxy)ethoxy)piperidin-1-yl)pyrimidine-5-carboxamide] gave an equilibrium dissociation constant (Kd) of more than 2500 nM. For the same compound, the 50% growth inhibitory concentration (GI50) in the test with VCaP cells (Homo sapiens) was less than 500 nM.

For the compound `CCS(=O)(=O)Nc1ccc(Oc2cccc(CCN3CC4CN(c5ncc(C(=O)N[C@H]6C(C)(C)[C@H](Oc7ccc(C#N)c(Cl)c7)C6(C)C)cn5)CC4C3)c2)c(-c2cn(C)c(=O)c3[nH]ccc23)c1` (stereo partly shown) [Compound I-119], the concentration for 50% growth inhibition (GI50) with T47D cells (Homo sapiens) and in the test with VCaP cells (Homo sapiens) was less than 500 nM throughout.

As for `CCS(=O)(=O)Nc1ccc(Oc2cccc(N3CC(N(C)C4CN(c5ncc(C(=O)N[C@H]6C(C)(C)[C@H](Oc7ccc(C#N)c(Cl)c7)C6(C)C)cn5)C4)C3)c2)c(-c2cn(C)c(=O)c3[nH]ccc23)c1` [Compound I-120], the 50% growth inhibitory concentration (GI50) with T47D cells (Homo sapiens) and in the test with VCaP cells (Homo sapiens) was less than 500 nM in each case.

For the compound `CCS(=O)(=O)Nc1ccc(Oc2cccc(N3CC(CC4CN(c5ncc(C(=O)N[C@H]6C(C)(C)[C@H](Oc7ccc(C#N)c(Cl)c7)C6(C)C)cn5)C4)C3)c2)c(-c2cn(C)c(=O)c3[nH]ccc23)c1` [Compound I-158], the GI50 in the test on T47D cells and in the test with VCaP cells was less than 500 nM in each case.

Compound `CCS(=O)(=O)c1ccc(Oc2cccc(OCCOC3CCN(c4ccc(C(=O)N[C@H]5C(C)(C)[C@H](Oc6ccc(C#N)c(Cl)c6)C5(C)C)cn4)CC3)c2F)c(-c2cn(C)c(=O)c3[nH]ccc23)c1` [Compound I-185] had a dissociation constant (Kd) at BRD4-BD1 of 50 to 500 nM. The GI50 in the test with VCaP cells (Homo sapiens) is less than 500 nM.

As to `Cn1cc(-c2cc(C(C)(C)O)ccc2Oc2ccc(CC3CCN(c4ncc(C(=O)N[C@H]5C(C)(C)[C@H](Oc6ccc(C#N)c(Cl)c6)C5(C)C)cn4)CC3)cc2)c2cc[nH]c2c1=O` [Compound I-201], the values for the GI50 in the test on T47D cells (Homo sapiens) and with VCaP cells (Homo sapiens) were less than 500 nM and 500 to 1500 nM, respectively.

Turning to `Cn1cc(-c2cc(C(C)(C)O)ccc2Oc2ccc(OCC3CCN(c4ncc(C(=O)N[C@H]5C(C)(C)[C@H](Oc6ccc(C#N)c(Cl)c6)C5(C)C)cn4)CC3)cc2)c2cc[nH]c2c1=O` [Compound I-202], the GI50 in the test on T47D cells (Homo sapiens) and with VCaP cells (Homo sapiens) was 500 to 1500 nM throughout.

With `Cn1cc(-c2cc(C(C)(C)O)ccc2Oc2ccc(OCCN3CCN(c4ncc(C(=O)N[C@H]5C(C)(C)[C@H](Oc6ccc(C#N)c(Cl)c6)C5(C)C)cn4)CC3)cc2)c2cc[nH]c2c1=O` [Compound I-204], the GI50 in the test on T47D cells (Homo sapiens) and in the test with VCaP cells (Homo sapiens) was less than 500 nM each time.

As for `CN(C1CCN(c2ncc(C(=O)N[C@H]3C(C)(C)[C@H](Oc4ccc(C#N)c(Cl)c4)C3(C)C)cn2)CC1)C1CN(c2ccc(Oc3ccc(C(C)(C)O)cc3-c3cn(C)c(=O)c4[nH]ccc34)cc2)C1` [Compound I-208], the GI50 in the test on T47D cells (Homo sapiens) is less than 500 nM; with VCaP cells (Homo sapiens) it was 500 to 1500 nM.

`Cn1cc(-c2cc(C(C)(C)O)ccc2Oc2ccc(N3CC4(C3)CN(c3ncc(C(=O)N[C@H]5C(C)(C)[C@H](Oc6ccc(C#N)c(Cl)c6)C5(C)C)cn3)CCO4)cc2)c2cc[nH]c2c1=O` [Compound I-212]: the results for the GI50 in the test with T47D cells and in the test with VCaP cells were 500 to 1500 nM and 1500 to 3000 nM, respectively.

Turning to `Cn1cc(-c2cc(C(C)(C)O)ccc2Oc2cccc(N3CC4(CN(c5ncc(C(=O)N[C@H]6C(C)(C)[C@H](Oc7ccc(C#N)c(Cl)c7)C6(C)C)cn5)CCO4)C3)c2F)c2cc[nH]c2c1=O` [Compound I-216], the GI50 in the test with T47D cells (Homo sapiens) and in the test with VCaP cells (Homo sapiens) was less than 500 nM each time.

As for `CCS(=O)(=O)c1ccc(Oc2cccc(OCCN3CCN(c4ncc5c(n4)CN([C@H]4C(C)(C)[C@H](Oc6ccc(C#N)c(Cl)c6)C4(C)C)C5=O)CC3)c2F)c(-c2cn(C)c(=O)c3[nH]ccc23)c1` [Compound I-217], the GI50 in the test on T47D cells and in the test on VCaP cells was less than 500 nM throughout.

Take `Cn1cc(-c2cc(C(C)(C)O)ccc2Oc2ccc(N3CC(OC4CCN(c5ncc(C(=O)N[C@H]6C(C)(C)[C@H](Oc7ccc(C#N)c(Cl)c7)C6(C)C)cn5)CC4)C3)cc2)c2cc[nH]c2c1=O` [Compound I-219]: the concentration for 50% growth inhibition (GI50) in the test with T47D cells (Homo sapiens) and with VCaP cells (Homo sapiens) was less than 500 nM each time.

For `CCS(=O)(=O)c1ccc(Oc2ccc(OCC3CCN(c4ncc5c(n4)CN([C@H]4C(C)(C)[C@H](Cc6ccc(C#N)c(Cl)c6)C4(C)C)C5=O)CC3)cc2)c(-c2cn(C)c(=O)c3[nH]ccc23)c1` [Compound I-220], the concentration for 50% growth inhibition (GI50) is less than 500 nM in the test on T47D cells (Homo sapiens) and more than 3000 nM with VCaP cells (Homo sapiens).

Regarding `CC(C)N(C1CCN(c2ncc(C(=O)N[C@H]3C(C)(C)[C@H](Oc4ccc(C#N)c(Cl)c4)C3(C)C)cn2)CC1)C1CN(c2cccc(Oc3ccc(C(C)(C)O)cc3-c3cn(C)c(=O)c4[nH]ccc34)c2F)C1` [Compound I-221], the GI50 in the test with T47D cells (Homo sapiens) was 500 to 1500 nM; in the test on VCaP cells (Homo sapiens), more than 3000 nM.

`Cn1cc(-c2cc(C(C)(C)O)ccc2Oc2ccc(N3CC(CC4CCN(c5ncc(C(=O)N[C@H]6C(C)(C)[C@H](Oc7ccc(C#N)c(Cl)c7)C6(C)C)cn5)CC4)C3)cc2)c2cc[nH]c2c1=O` [Compound I-232]: the GI50 in the test on T47D cells (Homo sapiens) is less than 500 nM; in the test on VCaP cells (Homo sapiens) it was 500 to 1500 nM.

Consider `CN(C1CN(c2ccc(Oc3ccc(C(C)(C)O)cc3-c3cn(C)c(=O)c4[nH]ccc34)cc2)C1)C1CN(c2ncc(C(=O)N[C@H]3C(C)(C)[C@H](Oc4ccc(C#N)c(Cl)c4)C3(C)C)cn2)C1` [Compound I-238], for which the GI50 in the test on T47D cells and in the test on VCaP cells was less than 500 nM each time.

In the case of `CN(CC1CCN(c2ncc(C(=O)N[C@H]3C(C)(C)[C@H](Oc4ccc(C#N)c(Cl)c4)C3(C)C)cn2)CC1)C1(c2ccc(Oc3ccc(C(C)(C)O)cc3-c3cn(C)c(=O)c4[nH]ccc34)cc2)COC1` [Compound I-255], the GI50 with T47D cells and in the test with VCaP cells was less than 500 nM in each case.

Turning to `Cn1cc(-c2cc(C(C)(C)O)ccc2Oc2ccc(CCCC3CC4(C3)CN(c3ncc(C(=O)N[C@H]5C(C)(C)[C@H](Oc6ccc(C#N)c(Cl)c6)C5(C)C)cn3)C4)cc2)c2cc[nH]c2c1=O` [Compound I-268], the GI50 in the test on T47D cells (Homo sapiens) and in the test with VCaP cells (Homo sapiens) was less than 500 nM each time.

As to `Cn1cc(-c2cc(C(C)(C)O)ccc2Oc2ccc(N3CC(CC4CN(c5ncc(C(=O)N[C@H]6C(C)(C)[C@H](Oc7ccc(C#N)c(Cl)c7)C6(C)C)cn5)C4)C3)cc2)c2cc[nH]c2c1=O` [Compound I-280], the GI50 with T47D cells (Homo sapiens) and with VCaP cells (Homo sapiens) was less than 500 nM in each case.

The record behind these values is patent US20250388605A1, “HETEROBIFUNCTIONAL COMPOUNDS AND METHODS OF TREATING DISEASE” (Halda Therapeutics OpCo, Inc., priority 2022, published 2025).
